Source: patent US8685936B2, “Sphingosine kinase inhibitor prodrugs” (Apogee Biotechnology Corporation, priority 2009, dated 2014)
“Also recorded” adds a separate entry of the source.

Assays:
[1] = Conversion of Compound 2 to Compound 1 in living mice; plasma levels of Compound 1 by HPLC; assay type: in vivo
Protocol: FIG. 4. Conversion of Compound 2 into Compound 1 in vivo. Balb/C female mice, 6-8 weeks old, were dosed with either Compound 1 (●) or Compound 2 (♦) at 50 mg/kg by intravenous injection. Mice were euthanized at the indicate times after injection, and blood was harvested by cardiac puncture and plasma was prepared. The plasma was then extracted and analyzed for Compound 1 levels by HPLC.
To extend the in vitro studies described above, the ability of Compound 2 to be converted to Compound 1 in an in vivo test system was determined. In these experiments, Compound 1 or Compound 2 was dissolved in PEG400 and administered to female Balb/C mice at a dose of 50 mg/kg by intravenous injection. Mice were sacrificed and blood was removed via cardiac puncture at 2 minutes, 15 minutes, 30 minutes or 60 minutes. The concentration of Compound 1 in the blood of the animals at each of the time points was determined using HPLC with UV detection as described in the previous Example. […] In the case of administration of Compound 2, plasma concentrations of Compound 1 rose during the first 30 minutes and then were decreased with a half-time of clearance of approximately 20 minutes.

[2] = tested on: DSS-colitis model; experiment: Acute DSS-colitis model of inflammatory bowel disease; assay type: in vivo, C57BL/6 mice
Protocol: FIG. 7. Effects of Compound 1 and Compound 2 on the Disease Activity Index (DAI) in the acute DSS-colitis model. […] After 6 days, the DAI was calculated for each group. Values represent the mean±std. dev. for 5-6 mice per group. […] FIG. 8. Effects of Compound 1 and Compound 2 on colon length in the acute DSS-colitis model. […] After 6 days, the animals were sacrificed and the length of the colon was measured. Values represent the mean±std. dev. for 6-7 mice per group. In this model, colon length decreases as the disease progresses. […] FIG. 9. Effects of Compound 1 and Compound 2 on neutrophil infiltration into the colon in the acute DSS-colitis model. […] After 6 days, the animals were sacrificed and the colons were harvested. Myeloperoxidase activity (MPO) was measured and normalized by the protein concentration of the samples. Values represent the mean±std. dev. for 6-7 mice per group. In this model, MPO activity in the colon increases as a result of neutrophil infiltration into the colon as the disease progresses. […] FIG. 10. Effects of ester prodrugs on colon length in the acute DSS-colitis model. C57BL/6 mice were treated for 6 days as follows: 2% DSS in the drinking water and daily oral administration of Vehicle (described in FIG. 7); or 2% DSS in the drinking water and oral administration of 50 mg/kg the indicated ester prodrugs in Vehicle. After 6 days, the animals were sacrificed and the length of the colon was measured. Values represent the mean±std. dev. for 4-5 mice per group. In this model, colon length decreases as the disease progresses. […] FIG. 11. Effects of ester prodrugs on neutrophil infiltration into the colon in the acute DSS-colitis model. C57BL/6 mice were treated for 6 days as follows: 2% DSS in the drinking water and daily oral administration of Vehicle (described in FIG. 7); or 2% DSS in the drinking water and oral administration of 50 mg/kg the indicated ester prodrugs in Vehicle. After 6 days, the animals were sacrificed and the length of the colon was measured. Values represent the mean±std. dev. for 4-5 mice per group. In this model, MPO activity in the colon increases as a result of neutrophil infiltration into the colon as the disease progresses. […] In these experiments, male C57BL/6 mice were provided with standard rodent diet and water ad libitum. After their acclimation, the animals were randomly divided into groups of 5 or 6 for DSS (40,000 MW from ICN Biomedicals, Inc., Aurora, Ohio)- and drug-treatment. The Compounds were dissolved in a Vehicle consisting of 46.7% PEG 400, 46.7% of a solution of 0.375% Tween 80 in saline and 6.6% ethanol, and given once daily (starting on Day 0) by oral gavage in a volume of 0.1 mL per dose. The mice were given normal drinking water or 2% DSS (starting on Day 0) and treated orally with Compound 1 or Compound 2 at a dose of 50 mg/kg daily. The body weight of each animal was measured each day, and the Disease Activity Index (DAI) was scored for each animal on Day 6. On Day 6, the animals were sacrificed by cervical dislocation and the entire colon was removed and measured to the nearest 0.1 cm. The distal 3 cm of the colons were used for biochemical analyses of inflammation markers.

## CC(=O)Oc1ccc(CCNC(=O)C23CC4CC(C2)CC(c2ccc(Cl)cc2)(C4)C3)cc1OC(C)=O [Compound 2, Acetic acid 2-acetoxy-5-(2-{[3-(4-chlorophenyl)-adamantane-1-carbonyl]-amino}ethyl)phenyl ester]
[1]; 50 mg/kg intravenous, female Balb/C mice
  area-under-the-curve (AUC) for exposure to circulating Compound 1, compared with dosing Compound 1 itself: much greater
[1]; 50 mg/kg of the named compound by intravenous injection in PEG400, female Balb/C mice, Compound 1 measured
  half-time for clearance of Compound 1 from plasma: approximately 20 minutes
[2]; 2% DSS in drinking water, 50 mg/kg daily oral, Day 6, C57BL/6 mice, 50 mg/kg
  Disease Activity Index (DAI): reduced the intensity of the IBD manifestations; also recorded: superior to Compound 1 in reducing the DAI
[2]; 2% DSS, 50 mg/kg daily oral, Day 6, C57BL/6 mice (Example 16, FIG. 9), 50 mg/kg
  colon myeloperoxidase (MPO) activity (neutrophil infiltration): markedly attenuated; also recorded: reduced to a greater extent
[2]; 2% DSS, 50 mg/kg oral, 6 days, C57BL/6 mice, 4-5 per group (Example 17, FIG. 10)
  colon length (contraction of the colon), ester prodrugs: effective in preventing the contraction of the colons
[2]; 2% DSS, 50 mg/kg oral, Day 6, C57BL/6 mice (Example 16, FIG. 8), 50 mg/kg
  colon length: colons of significantly longer length; also recorded: superior to the protective effect of Compound 1
